We go through 39 molecules from patent US10377753B2, “Substituted 4-azaindoles and their use as GluN2B receptor modulators” (Janssen Pharmaceutica NV, priority 2015, dated 2019).

One may read the IC50 as the concentration needed to halve the response being measured.

Structures can show the parent of a compound that is named as a salt.

Chain of cloned human NR1/NR2B ion channels (Q13224 27-1484, other chains not shown): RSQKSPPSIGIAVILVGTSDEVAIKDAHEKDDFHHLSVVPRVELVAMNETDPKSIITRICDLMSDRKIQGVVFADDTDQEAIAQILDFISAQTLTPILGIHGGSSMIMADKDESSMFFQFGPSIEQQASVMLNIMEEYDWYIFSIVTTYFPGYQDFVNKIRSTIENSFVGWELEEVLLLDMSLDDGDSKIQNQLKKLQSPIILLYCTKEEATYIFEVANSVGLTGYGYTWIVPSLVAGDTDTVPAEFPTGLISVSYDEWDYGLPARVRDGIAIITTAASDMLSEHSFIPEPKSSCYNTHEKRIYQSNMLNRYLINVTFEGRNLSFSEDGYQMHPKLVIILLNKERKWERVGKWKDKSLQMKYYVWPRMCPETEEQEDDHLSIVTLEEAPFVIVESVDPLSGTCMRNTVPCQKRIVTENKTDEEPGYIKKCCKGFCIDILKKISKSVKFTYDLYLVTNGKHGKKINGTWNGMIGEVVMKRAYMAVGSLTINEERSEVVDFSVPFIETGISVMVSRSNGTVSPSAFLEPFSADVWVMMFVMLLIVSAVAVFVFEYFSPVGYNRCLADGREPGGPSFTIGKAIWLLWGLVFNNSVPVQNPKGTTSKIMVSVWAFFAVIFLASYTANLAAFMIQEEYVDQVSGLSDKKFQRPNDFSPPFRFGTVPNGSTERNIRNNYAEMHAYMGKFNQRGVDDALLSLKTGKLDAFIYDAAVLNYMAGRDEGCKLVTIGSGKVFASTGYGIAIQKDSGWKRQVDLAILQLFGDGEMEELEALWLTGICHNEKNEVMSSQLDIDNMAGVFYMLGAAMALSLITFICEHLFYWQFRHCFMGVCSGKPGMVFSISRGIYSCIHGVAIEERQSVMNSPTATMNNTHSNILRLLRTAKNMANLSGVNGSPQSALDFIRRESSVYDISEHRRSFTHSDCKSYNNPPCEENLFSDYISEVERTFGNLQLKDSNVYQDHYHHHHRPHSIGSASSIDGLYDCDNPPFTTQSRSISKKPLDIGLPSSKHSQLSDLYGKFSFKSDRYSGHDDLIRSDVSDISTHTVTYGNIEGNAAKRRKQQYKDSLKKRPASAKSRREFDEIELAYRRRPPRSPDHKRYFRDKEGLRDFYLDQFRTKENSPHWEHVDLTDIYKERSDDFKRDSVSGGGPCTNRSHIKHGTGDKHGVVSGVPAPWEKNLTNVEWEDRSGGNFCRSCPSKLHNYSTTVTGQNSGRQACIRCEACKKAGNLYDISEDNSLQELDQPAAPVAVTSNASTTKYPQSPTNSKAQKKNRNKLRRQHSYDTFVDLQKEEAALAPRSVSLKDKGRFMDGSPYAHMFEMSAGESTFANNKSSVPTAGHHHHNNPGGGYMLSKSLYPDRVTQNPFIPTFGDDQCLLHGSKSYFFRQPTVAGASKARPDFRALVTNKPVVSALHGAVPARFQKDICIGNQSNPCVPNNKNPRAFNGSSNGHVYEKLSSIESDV

One assay concerns the target cloned human NR1/NR2B ion channels (Homo sapiens (Human), UniProt Q05586+Q13224). The assay can be described thus: HNR2BC: effects of test articles on cloned human NR1/NR2B ion channels expressed in mammalian cells (FLIPR calcium flux). Type of assay: cell-based. The conditions noted are these: cloned human NR1/NR2B ion channels, Table 5. A digest of the protocol:
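Compounds were added to dye-loaded cells for 5 min with fluorescence monitored for agonism, followed by co-agonists (glutamate ~EC80, glycine 10 μM saturating) for 5 min. Cells stably expressed inducible human NR1/NR2B, and the buffer was pH 7.4. The FLIPR Ca2+ flux signal was normalized against control wells.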
For orientation: Calcium assays in cells follow changes in intracellular calcium, usually with a dye or a luminescent sensor.
Turning to `O=C(Cn1ccc2ncc(-c3ccc(F)c(F)c3)cc21)N1CCCC1` [Example 367, 2-[6-(3,4-Difluorophenyl)pyrrolo[3,2-b]pyridin-1-yl]-1-pyrrolidin-1-yl-ethanone], the half-maximal inhibitory concentration (IC50) was 50.1 nM.
Still for that read-out and setting: the figure for `Cc1csc(-c2cnc3ccn(CC(=O)N4CC(F)(F)C4)c3c2)c1` [Example 368, 1-(3,3-Difluoroazetidin-1-yl)-2-[6-(4-methyl-2-thienyl)pyrrolo[3,2-b]pyridin-1-yl]ethanone] is 25.1 nM; for `Cc1csc(-c2cnc3ccn(CC(=O)N4CCCC4)c3c2)c1` [Example 369, 2-[6-(4-Methyl-2-thienyl)pyrrolo[3,2-b]pyridin-1-yl]-1-pyrrolidin-1-yl-ethanone] it is 20 nM; for `Cc1csc(-c2cnc3ccn(CC(=O)N4CC(F)C4)c3c2)c1` [Example 370, 1-(3-Fluoroazetidin-1-yl)-2-[6-(4-methyl-2-thienyl)pyrrolo[3,2-b]pyridin-1-yl]ethanone] it is 31.6 nM.
On the same count and under the same terms, for `O=C(Cn1ccc2ncc(-c3cc(F)c(F)c(F)c3)cc21)N1CC(F)C1` [Example 371, 1-(3-Fluoroazetidin-1-yl)-2-[6-(3,4,5-trifluorophenyl)pyrrolo[3,2-b]pyridin-1-yl]ethanone] the value was 15.8 nM.
`O=C(Cn1ccc2ncc(-c3ccc(Cl)s3)cc21)N1CC(F)C1` [Example 372, 2-[6-(5-Chloro-2-thienyl)pyrrolo[3,2-b]pyridin-1-yl]-1-(3-fluoroazetidin-1-yl)ethanone]: the IC50 is 15.8 nM.
As for `O=C(Cn1ccc2ncc(-c3ccc(Cl)s3)cc21)N1CCC1` [Example 373, 1-(Azetidin-1-yl)-2-[6-(5-chloro-2-thienyl)pyrrolo[3,2-b]pyridin-1-yl]ethanone], the IC50 was 20 nM.
On the same count and under the same terms, the figure for `O=C(Cn1cc(Cl)c2ncc(-c3ccc(F)c(F)c3F)cc21)N1CC(F)C1` [Example 374, 2-[3-Chloro-6-(2,3,4-trifluorophenyl)pyrrolo[3,2-b]pyridin-1-yl]-1-(3-fluoroazetidin-1-yl)ethanone] is 20 nM; for `CN(C)C(=O)Cn1ccc2ncc(-c3cc(F)c(F)c(F)c3)cc21` [Example 375, N,N-Dimethyl-2-[6-(3,4,5-trifluorophenyl)pyrrolo[3,2-b]pyridin-1-yl]acetamide] it is 12.6 nM; for `CN(C)C(=O)Cn1ccc2ncc(-c3cc(F)cc(F)c3)cc21` [Example 376, 2-[6-(3,5-Difluorophenyl)pyrrolo[3,2-b]pyridin-1-yl]-N,N-dimethyl-acetamide] it is 20 nM.
On to `CN(C)C(=O)Cn1ccc2ncc(-c3cccc(C(F)F)c3)cc21` [Example 377, 2-[6-[3-(Difluoromethyl)phenyl]pyrrolo[3,2-b]pyridin-1-yl]-N,N-dimethyl-acetamide], for which the IC50 is 10 nM.
On to `Cc1ccc(-c2cnc3ccn(CC(=O)N4CCC4)c3c2)s1` [Example 380, 1-(Azetidin-1-yl)-2-[6-(5-methyl-2-thienyl)pyrrolo[3,2-b]pyridin-1-yl]ethanone], for which the IC50 is 10 nM.
The same measure, in the same setting: for `O=C(Cn1cc(Cl)c2ncc(-c3ccc(Cl)s3)cc21)N1CCC1` [Example 381, 1-(Azetidin-1-yl)-2-[3-chloro-6-(5-chloro-2-thienyl)pyrrolo[3,2-b]pyridin-1-yl]ethanone] the value was 15.8 nM.
The same measure, in the same setting: for `O=C(Cn1cc(F)c2ncc(-c3ccc(F)c(F)c3)cc21)N1CCC1` [Example 382, 1-(Azetidin-1-yl)-2-[6-(3,4-difluorophenyl)-3-fluoro-pyrrolo[3,2-b]pyridin-1-yl]ethanone] the value was 15.8 nM; for `O=C(Cn1cc(F)c2ncc(-c3cc(F)c(F)c(F)c3)cc21)N1CCC1` [Example 383, 1-(Azetidin-1-yl)-2-[3-fluoro-6-(3,4,5-trifluorophenyl)pyrrolo[3,2-b]pyridin-1-yl]ethanone], 15.8 nM; for `O=C(Cn1cc(Cl)c2ncc(-c3ccc(F)cc3)cc21)C1CC1` [Example 384, 2-[3-Chloro-6-(4-fluorophenyl)pyrrolo[3,2-b]pyridin-1-yl]-1-cyclopropyl-ethanone], 20 nM.
Take `O=C(Cn1ccc2ncc(-c3ccsc3)cc21)N1CCC1` [Example 385, 1-(Azetidin-1-yl)-2-[6-(3-thienyl)pyrrolo[3,2-b]pyridin-1-yl]ethanone trifluoroacetate salt]: the IC50 was 20 nM.
In the case of `CN(C)C(=O)Cn1cc(F)c2ncc(-c3cccs3)cc21` [Example 387, 2-[3-Fluoro-6-(2-thienyl)pyrrolo[3,2-b]pyridin-1-yl]-N,N-dimethyl-acetamide], the half-inhibitory concentration (IC50) is 63.1 nM.
On to `CCc1ccc(-c2cnc3ccn(CC(=O)N(C)C)c3c2)s1` [Example 388, 2-[6-(5-Ethyl-2-thienyl)pyrrolo[3,2-b]pyridin-1-yl]-N,N-dimethyl-acetamide trifluoroacetate salt], for which the 50% inhibitory concentration (IC50) is 794 nM.
On the same count and under the same terms, the figure for `O=C(Cn1cc(F)c2ncc(-c3cccs3)cc21)N1CCC1` [Example 389, 1-(Azetidin-1-yl)-2-[3-fluoro-6-(2-thienyl)pyrrolo[3,2-b]pyridin-1-yl]ethanone trifluoroacetate salt] is 158 nM; for `Cc1ccc(-c2cnc3c(F)cn(CC(=O)N(C)C)c3c2)s1` [Example 390, 2-[3-Fluoro-6-(5-methyl-2-thienyl)pyrrolo[3,2-b]pyridin-1-yl]-N,N-dimethyl-acetamide] it is 316 nM; for `CN(C)C(=O)Cn1ccc2ncc(-c3cc(Cl)cs3)cc21` [Example 391, 2-[6-(4-Chloro-2-thienyl)pyrrolo[3,2-b]pyridin-1-yl]-N,N-dimethyl-acetamide trifluoroacetate salt] it is 50.1 nM.
The same measure, in the same setting: for `CCc1ccc(-c2cnc3ccn(CC(=O)N4CCC4)c3c2)s1` [Example 392, 1-(Azetidin-1-yl)-2-[6-(5-ethyl-2-thienyl)pyrrolo[3,2-b]pyridin-1-yl]ethanone trifluoroacetate salt] the value was 63.1 nM; for `CCc1ccc(-c2cnc3c(F)cn(CC(=O)N(C)C)c3c2)s1` [Example 393, 2-[6-(5-Ethyl-2-thienyl)-3-fluoro-pyrrolo[3,2-b]pyridin-1-yl]-N,N-dimethyl-acetamide], 126 nM.

The assay is the same for the next values; noted with them: cloned human NR1/NR2B, Table 5.
As for `O=C(Cn1ccc2ncc(-c3cccc(C(F)(F)F)c3F)cc21)NC1CC1` [Example 352, N-Cyclopropyl-2-[6-[2-fluoro-3-(trifluoromethyl)phenyl]pyrrolo[3,2-b]pyridin-1-yl]acetamide trifluoroacetate salt], the IC50 is 39.8 nM.
On the same count and under the same terms, for `O=C(Cn1ccc2ncc(-c3ccc(F)cc3)cc21)N1CCC1` [Example 353, 1-(Azetidin-1-yl)-2-[6-(4-fluorophenyl)pyrrolo[3,2-b]pyridin-1-yl]ethanone] the value was 31.6 nM; for `O=C(Cn1ccc2ncc(-c3ccccc3)cc21)N1CCC1` [Example 354, 1-(Azetidin-1-yl)-2-(6-phenylpyrrolo[3,2-b]pyridin-1-yl)ethanone], 31.6 nM; for `O=C(Cn1ccc2ncc(-c3cc(F)cc(F)c3)cc21)N1CCC1` [Example 355, 1-(Azetidin-1-yl)-2-[6-(3,5-difluorophenyl)pyrrolo[3,2-b]pyridin-1-yl]ethanone], 50.1 nM.
The same measure, in the same setting: for `Cc1cccc(-c2cnc3ccn(CC(=O)N4CCC4)c3c2)c1` [Example 356, 1-(Azetidin-1-yl)-2-[6-(m-tolyl)pyrrolo[3,2-b]pyridin-1-yl]ethanone trifluoroacetate salt] the value was 20 nM.
On to `O=C(Cn1ccc2ncc(-c3ccc(Cl)c(Cl)c3)cc21)N1CCC1` [Example 357, 1-(Azetidin-1-yl)-2-[6-(3,4-dichlorophenyl)pyrrolo[3,2-b]pyridin-1-yl]ethanone trifluoroacetate salt], for which the 50% inhibitory concentration (IC50) is 20 nM.
Take `O=C(Cn1ccc2ncc(-c3cccc(C(F)(F)F)c3F)cc21)N1CCC1` [Example 358, 1-(Azetidin-1-yl)-2-[6-[2-fluoro-3-(trifluoromethyl)phenyl]pyrrolo[3,2-b]pyridin-1-yl]ethanone trifluoroacetate salt]: the half-maximal inhibitory concentration (IC50) was 39.8 nM.
On the same count and under the same terms, for `Cc1csc(-c2cnc3ccn(CC(=O)N4CCC4)c3c2)c1` [Example 359, 1-(Azetidin-1-yl)-2-[6-(4-methyl-2-thienyl)pyrrolo[3,2-b]pyridin-1-yl]ethanone trifluoroacetate salt] the value was 31.6 nM; for `Cc1cc(-c2cnc3c(Cl)cn(CC(=O)N4CCC4)c3c2)ccc1F` [Example 360, 1-(Azetidin-1-yl)-2-[3-chloro-6-(4-fluoro-3-methyl-phenyl)pyrrolo[3,2-b]pyridin-1-yl]ethanone], 31.6 nM.
Take `O=C(Cn1ccc2ncc(-c3ccc(F)c(F)c3)cc21)N1CC(F)(F)C1` [Example 361, 1-(3,3-Difluoroazetidin-1-yl)-2-[6-(3,4-difluorophenyl)pyrrolo[3,2-b]pyridin-1-yl]ethanone]: the IC50 is 25.1 nM.
`O=C(Cn1ccc2ncc(-c3cccc(C(F)(F)F)n3)cc21)N1CCC1` [Example 362, 1-(Azetidin-1-yl)-2-[6-[6-(trifluoromethyl)-2-pyridyl]pyrrolo[3,2-b]pyridin-1-yl]ethanone]: the 50% inhibitory concentration (IC50) was 31.6 nM.
On to `O=C(Cn1ccc2ncc(-c3cc(F)c(F)c(F)c3)cc21)N1CCC1` [Example 363, 1-(Azetidin-1-yl)-2-[6-(3,4,5-trifluorophenyl)pyrrolo[3,2-b]pyridin-1-yl]ethanone], for which the IC50 is 79.4 nM.
Same read-out and setting: the figure for `CC(C)C(=O)Cn1ccc2ncc(-c3cc(F)cc(F)c3)cc21` [Example 364, 1-[6-(3,5-Difluorophenyl)pyrrolo[3,2-b]pyridin-1-yl]-3-methyl-butan-2-one] is 20 nM.
Same read-out and setting: for `O=C(Cn1ccc2ncc(-c3ccc(F)cc3)cc21)C1CCC1` [Example 365, 1-Cyclobutyl-2-[6-(4-fluorophenyl)pyrrolo[3,2-b]pyridin-1-yl]ethanone] the value was 20 nM.
The same measure, in the same setting: for `CCc1cccc(-c2cnc3ccn(CC(=O)NC4CC4)c3c2)c1` [Example 366, N-Cyclopropyl-2-[6-(3-ethylphenyl)pyrrolo[3,2-b]pyridin-1-yl]acetamide] the value was 31.6 nM.
